According to the supplement of paper PMC10307832:

Key:
Assay in all cases: relative viability (nuclei count vs DMSO), 5 days (fraction); higher = more cells survive
Wnt-C59 + Dasatinib = compound: CC1=NC=CC(=C1)C2=CC=C(C=C2)CC(=O)NC3=CC=C(C=C3)C4=CN=CC=C4 [Wnt-C59] + Cc1nc(Nc2ncc(C(=O)Nc3c(C)cccc3Cl)s2)cc(N2CCN(CCO)CC2)n1 [Dasatinib] (partner 0.075 µM)
Outline: (§1)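 The day after seeding in 1536-well plates, lung cancer cell lines were treated by pin tool with a single drug, or with a fixed anchor-drug dose together with five library-drug doses (not always all listed) in √10 steps. After 5 days, a combined fix-and-stain solution (final 0.05% Triton X-100, 1% formaldehyde, 1 ug/ml Hoechst) was added. Nuclei counted on 4× images gave relative viability as treated counts over vehicle counts, reported as the median of duplicate plates.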

Lapatinib + Vorinostat = compound: CS(=O)(=O)CCNCc1ccc(-c2ccc3ncnc(Nc4ccc(OCc5cccc(F)c5)c(Cl)c4)c3c2)o1 [Lapatinib] + O=C(CCCCCCC(=O)Nc1ccccc1)NO [Vorinostat] (partner 1 µM)
Outline: as §1

Wnt-C59 + Tozasertib = compound: CC1=NC=CC(=C1)C2=CC=C(C=C2)CC(=O)NC3=CC=C(C=C3)C4=CN=CC=C4 [Wnt-C59] + Cc1cc(Nc2cc(N3CCN(C)CC3)nc(Sc3ccc(NC(=O)C4CC4)cc3)n2)n[nH]1 [Tozasertib] (partner 0.1 µM)
Outline: as §1

Lapatinib + Crizotinib = compound: CS(=O)(=O)CCNCc1ccc(-c2ccc3ncnc(Nc4ccc(OCc5cccc(F)c5)c(Cl)c4)c3c2)o1 [Lapatinib] + C[C@@H](Oc1cc(-c2cnn(C3CCNCC3)c2)cnc1N)c1c(Cl)ccc(F)c1Cl [Crizotinib] (partner 1 µM)
Outline: as §1

| Cell Line | relative viability (Wnt-C59 + Dasatinib; first compound 0.001 µM) | relative viability (Wnt-C59 + Dasatinib; first compound 0.01 µM) | relative viability (Wnt-C59 + Dasatinib; first compound 0.03162 µM) | relative viability (Wnt-C59 + Dasatinib; first compound 0.1 µM) | relative viability (Lapatinib + Vorinostat; first compound 0.02 µM) | relative viability (Lapatinib + Vorinostat; first compound 0.06325 µM) | relative viability (Lapatinib + Vorinostat; first compound 0.2 µM) | relative viability (Lapatinib + Vorinostat; first compound 0.6325 µM) | relative viability (Lapatinib + Vorinostat; first compound 2 µM) | relative viability (Wnt-C59 + Tozasertib; first compound 0.001 µM) | relative viability (Wnt-C59 + Tozasertib; first compound 0.01 µM) | relative viability (Wnt-C59 + Tozasertib; first compound 0.03162 µM) | relative viability (Wnt-C59 + Tozasertib; first compound 0.1 µM) | relative viability (Lapatinib + Crizotinib; first compound 0.02 µM) | relative viability (Lapatinib + Crizotinib; first compound 0.06325 µM) | relative viability (Lapatinib + Crizotinib; first compound 0.2 µM) | relative viability (Lapatinib + Crizotinib; first compound 0.6325 µM) | relative viability (Lapatinib + Crizotinib; first compound 2 µM) |
| --- | --- | --- | --- | --- | --- | --- | --- | --- | --- | --- | --- | --- | --- | --- | --- | --- | --- | --- |
| NCI-H460 | 0.482 | 0.483 | 0.524 | 0.531 | 0.671 | 0.67 | 0.815 | 0.715 | 0.533 | 0.465 | 0.0488 | 0.555 | 0.48 | 0.892 | 0.953 | 1.11 | 0.802 | 0.983 |
| NCI-H520 | 0.217 | 0.189 | 0.208 | 0.174 | 0.7 | 0.684 | 0.707 | 0.671 | 0.76 | 0.434 | 0.54 | 0.496 | 0.43 | 0.726 | 0.759 | 0.863 | 0.812 | 0.745 |
| NCI-H596 | 0.609 | 0.477 | 0.554 | 0.611 |  | 0.538 | 0.606 | 0.711 | 0.537 | 0.943 | 0.778 | 0.882 | 0.905 | 0.916 | 0.849 | 1 | 0.997 | 0.659 |
| NCI-H647 | 0.193 | 0.166 | 0.2 | 0.152 | 0.627 | 0.403 | 0.627 | 0.498 | 0.584 | 0.448 | 0.27 | 0.167 | 0.179 | 1.01 | 0.904 | 1.03 | 1.03 | 0.923 |
| NCI-H650 | 0.43 | 0.512 | 0.457 | 0.526 |  | 0.38 | 0.434 | 0.577 | 0.538 | 0.734 | 0.748 | 0.802 | 0.729 |  | 0.637 | 0.872 | 0.624 | 0.69 |
| NCI-H661 | 0.914 | 0.736 | 0.907 | 0.872 | 0.758 | 0.783 | 0.79 | 0.736 | 0.605 | 0.351 | 0.324 | 0.352 | 0.357 | 0.979 | 1.15 | 1.29 | 1.05 | 0.762 |
| NCI-H727 | 0.298 |  | 0.363 | 0.388 | 1.17 |  | 1.17 | 1.45 | 1.02 | 0.702 | 0.547 | 0.586 | 0.565 | 0.77 | 0.663 | 0.657 | 0.718 | 0.572 |
| NCI-H838 | 0.291 | 0.29 | 0.288 | 0.302 | 0.699 | 0.69 | 0.743 | 0.732 | 0.544 | 0.332 | 0.247 | 0.293 | 0.263 | 0.838 | 0.764 | 1.07 | 0.855 | 0.757 |
| NCI-H1355 | 0.725 | 0.533 | 0.711 | 0.617 | 0.574 | 0.541 | 0.568 | 0.61 | 0.395 | 0.599 | 0.581 | 0.564 | 0.558 |  | 0.854 | 1.02 | 1.02 | 0.606 |
| NCI-H1437 | 0.378 | 0.308 | 0.384 | 0.495 | 0.782 | 0.861 | 0.825 | 0.793 | 0.527 | 0.426 | 0.428 | 0.417 | 0.384 | 0.85 | 0.919 | 0.94 | 0.914 | 1 |
| NCI-H1650 | 0.302 | 0.333 | 0.309 | 0.322 | 0.474 | 0.578 | 0.554 | 0.516 | 0.664 | 0.423 | 0.477 | 0.499 | 0.423 | 0.977 | 0.795 | 0.854 | 0.9 | 0.596 |
| NCI-H1651 | 0.385 | 0.421 | 0.405 | 0.447 | 0.615 | 0.517 | 0.477 | 0.543 | 0.521 | 0.918 | 0.537 | 0.761 | 0.744 | 0.907 | 0.845 | 0.884 | 0.849 | 0.904 |
| NCI-H1666 | 0.803 | 0.84 | 0.836 | 0.795 | 0.951 | 0.978 | 1.05 | 0.961 | 0.789 | 0.649 | 0.674 | 0.566 | 0.576 | 0.787 | 1.05 | 0.847 | 0.842 | 0.357 |
| NCI-H1734 | 0.418 | 0.452 | 0.516 | 0.442 |  | 0.708 | 0.816 | 0.88 | 0.792 | 0.258 | 0.233 | 0.288 | 0.139 |  | 0.481 | 0.737 | 0.669 | 0.663 |
| NCI-H1755 | 0.429 | 0.405 | 0.436 | 0.41 | 0.731 | 0.689 | 0.801 | 0.76 | 0.676 | 0.647 | 0.528 | 0.646 | 0.534 | 0.851 | 0.82 | 0.899 | 0.818 | 0.809 |
| NCI-H1915 | 0.315 | 0.316 | 0.303 | 0.317 |  | 0.494 | 0.554 | 0.489 | 0.473 | 0.471 | 0.404 | 0.508 | 0.457 |  | 0.868 | 0.887 | 0.846 | 0.86 |
| NCI-H1944 | 0.24 | 0.218 | 0.195 | 0.179 | 0.514 | 0.511 | 0.461 | 0.459 | 0.437 | 0.237 | 0.261 | 0.263 | 0.246 |  |  | 0.811 | 0.808 | 0.56 |
